# Results reported in US5591741A, “Fungicidal spiroheterocyclic derivatives” (American Cyanamid Company, priority 1993, dated 1997).
# Columns and labels:
# [1] = test system: Plasmopara viticola; test: Antisporulant activity against vine downy mildew (PVA); assay type: in vivo; settings: vine leaves, antisporulant foliar spray, 600 ppm, 750 l/ha
# How it was run: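 Cabernet Sauvignon vines (~8 cm) inoculated on lower leaf surfaces with 5×10^4 zoosporangia/ml, held 24 h at 21° C high humidity then 24 h glasshouse. Infected leaves sprayed underside with 600 ppm compound in 1:1 water/acetone, 0.04% Tween 20, 750 l/ha; 96 h glasshouse, 24 h humidity. Sporulating leaf area rated versus control.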
# [2] = test system: Alternaria solani; test: Activity against tomato early blight (AS); assay type: in vivo; settings: Table VI; tomato seedlings, contact prophylactic foliar spray, 4 days
# How it was run: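 Foliar contact prophylactic spray on tomato seedlings (cv Outdoor Girl, second true leaf expanded) in acetone/water 50:50 with 0.04% Tween 20; 24 h at 20° C, 40% R.H., then inoculation with 10^4 spores/ml A. solani conidia. Kept moist at 21° C; lesion cover rated 4 days post-inoculation against untreated or diluent-sprayed controls.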
# [3] = test system: Botrytis cinerea; test: Direct protectant activity against broad bean grey mould (BCB); assay type: in vivo; settings: direct protectant foliar spray, 600 ppm, 4 days
# How it was run: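 Broad bean plants (cv The Sutton, two leaf pairs) sprayed on upper leaf surfaces at 600 ppm, then inoculated 24 h later with 10^6 conidia/ml. Kept 4 days at 22 °C, high humidity; disease control rated from % leaf area with lesions against untreated or diluent controls.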
# [4] = test system: Leptosphaeria nodorum; test: Activity against wheat leafspot (LN); assay type: in vivo; settings: direct therapeutic foliar spray, 600 ppm, 6-8 days
# How it was run: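 Wheat cv Norman at single-leaf stage spray-inoculated with 1.5×10^6 conidia/ml, held 24 h at high humidity, then sprayed therapeutically with test compound at 600 ppm. Kept 6-8 days at 22° C, 70% humidity; lesion density per leaf rated against untreated or diluent-sprayed controls.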
# [5] = test system: Erysiphe graminis f.sp. hordei; test: Activity against barley powdery mildew, direct therapeutic (EGT); assay type: in vivo; settings: direct therapeutic foliar spray, 600 ppm, up to 7 days
# How it was run: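 Barley seedlings (cv. Golden Promise, single-leaf stage) were dusted with mildew conidia one day before a therapeutic foliar spray of 600 ppm compound. Plants were kept at 18 °C and 40% humidity for up to 7 days, and sporulating leaf area was rated against untreated or diluent-sprayed controls.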
# [6] = test system: Erysiphe graminis f.sp. hordei; test: Direct protectant activity against barley powdery mildew (EGP); assay type: in vivo; settings: direct protectant foliar spray, 8 days
# How it was run: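 Barley seedlings (cv Golden Promise, single-leaf stage) were foliar-sprayed, held 24 h at 18 °C/40% RH, then dusted with mildew conidia. After 8 days at 18 °C/40% RH, sporulating leaf area was scored as a rating against untreated or diluent-sprayed controls.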
# [7] = test system: Phytophthora infestans; assay type: in vivo; settings: tomato, direct protectant foliar spray
# [8] = test system: Pseudocercosporella herpotrichoides; test: Activity against wheat eyespot in-vitro (PHI); assay type: cell-based; settings: 10 ppm, 10 days, 20° C., mycelial growth
# How it was run: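 P. herpotrichoides mycelial fragments (5×10^4/ml) grown in half-strength PDB with compound at 10 ppm final, added from acetone. Incubated 10 days at 20 °C; mycelial growth rated against untreated or diluent controls.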
# [9] = test system: Rhizoctonia solani; test: Activity against Rhizoctonia in-vitro (RSI); assay type: cell-based; settings: 10 ppm, 10 days, 20° C., mycelial growth
# How it was run: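 R. solani mycelial fragments (5×10^4/ml) in half-strength Potato Dextrose Broth with compound added from acetone to 10 ppm final. Mycelial growth assessed after 10 days at 20° C, rated against untreated or diluent control.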
# [10] = test system: Venturia inaequalis; test: Activity against apple scab in-vitro (VII); assay type: cell-based; settings: 10 ppm, 10 days, 20° C., mycelial growth
# How it was run: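 Compound in acetone was tested at 10 ppm final in half-strength Potato Dextrose Broth inoculated with V. inaequalis mycelial fragments and spores at 5×10^4 propagules/ml. After 10 days at 20° C, mycelial growth was rated against untreated or diluent controls.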
# [11] = test system: Pyricularia oryzae; assay type: in vivo; settings: rice seedlings, direct therapeutic foliar spray, 600 ppm, 4-5 days
Compound,disease control rating PVA [1],disease control rating AS [2],disease control rating BCB [3],disease control rating LN [4],disease control rating EGT [5],disease control rating EGP [6],disease control rating PIP [7],disease control rating PHI [8],disease control rating RSI [9],disease control rating VII [10],disease control rating PO [11]
CCCCN(CCCC)C1COC2(CCC(C(C)(C)C)CC2)C1 (stereo not shown) [Compound 12],0 (less than 50% disease control),0 (less than 50% disease control),2 (greater than 80% disease control),0 (less than 50% disease control),2 (greater than 80% disease control),2 (greater than 80% disease control),0 (less than 50% disease control),0 (less than 50% disease control),0 (less than 50% disease control),2 (greater than 80% disease control),0 (less than 50% disease control)
CCCN(CCC)C1COC2(CCC(C(C)(C)C)CC2)C1 (stereo not shown) [Compound 13],0 (less than 50% disease control),0 (less than 50% disease control),0 (less than 50% disease control),0 (less than 50% disease control),2 (greater than 80% disease control),2 (greater than 80% disease control),0 (less than 50% disease control),0 (less than 50% disease control),0 (less than 50% disease control),2 (greater than 80% disease control),0 (less than 50% disease control)
CCCCCCN(C)C1COC2(CCC(C(C)(C)C)CC2)C1 (stereo not shown) [Compound 14],0 (less than 50% disease control),0 (less than 50% disease control),0 (less than 50% disease control),1 (about 50-80% disease control),2 (greater than 80% disease control),2 (greater than 80% disease control),0 (less than 50% disease control),2 (greater than 80% disease control),1 (about 50-80% disease control),2 (greater than 80% disease control),0 (less than 50% disease control)
CC1CC(C)CN(C2COC3(CCC(C(C)(C)C)CC3)C2)C1 (stereo not shown) [Compound 15],0 (less than 50% disease control),0 (less than 50% disease control),0 (less than 50% disease control),0 (less than 50% disease control),2 (greater than 80% disease control),2 (greater than 80% disease control),0 (less than 50% disease control),0 (less than 50% disease control),0 (less than 50% disease control),2 (greater than 80% disease control),0 (less than 50% disease control)
CC(C)(C)C1CCC2(CC1)CC(NC1CCCCC1)CO2 (stereo not shown) [Compound 16],0 (less than 50% disease control),2 (greater than 80% disease control),1 (about 50-80% disease control),1 (about 50-80% disease control),2 (greater than 80% disease control),2 (greater than 80% disease control),0 (less than 50% disease control),0 (less than 50% disease control),0 (less than 50% disease control),2 (greater than 80% disease control),0 (less than 50% disease control)
CC1CCCCN1C1COC2(CCC(C(C)(C)C)CC2)C1 (stereo not shown) [Compound 17],0 (less than 50% disease control),0 (less than 50% disease control),0 (less than 50% disease control),0 (less than 50% disease control),2 (greater than 80% disease control),2 (greater than 80% disease control),0 (less than 50% disease control),0 (less than 50% disease control),0 (less than 50% disease control),0 (less than 50% disease control),0 (less than 50% disease control)
CC1CCCN(C2COC3(CCC(C(C)(C)C)CC3)C2)C1 (stereo not shown) [Compound 18],0 (less than 50% disease control),0 (less than 50% disease control),0 (less than 50% disease control),1 (about 50-80% disease control),2 (greater than 80% disease control),2 (greater than 80% disease control),0 (less than 50% disease control),0 (less than 50% disease control),0 (less than 50% disease control),1 (about 50-80% disease control),0 (less than 50% disease control)
CC1CCN(C2COC3(CCC(C(C)(C)C)CC3)C2)CC1 (stereo not shown) [Compound 19],0 (less than 50% disease control),0 (less than 50% disease control),0 (less than 50% disease control),1 (about 50-80% disease control),2 (greater than 80% disease control),2 (greater than 80% disease control),0 (less than 50% disease control),0 (less than 50% disease control),0 (less than 50% disease control),1 (about 50-80% disease control),0 (less than 50% disease control)
